The source of these data is patent US20190375708A1 (VenatoRx Pharmaceuticals, Inc., priority 2018, published 2019).

Series [1] in a line: In vitro cytotoxicity assay (MTT cell viability) in HepG2 cells. The class given is cell-based, human. The following applies: human. The method, boiled down: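 Using MTT conversion as the viability measure, HepG2 cells were incubated with compounds for 7 days (30 μM to 1.0 nM). Absorbance at 492 nm was normalized to vehicle and fitted to give CC50.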
Series [2] has as its system HBV replication in HepAD38 cells. As to the kind of experiment: Anti-HBV replication assay in HepAD38 cells (QPCR of extracellular HBV DNA). It is filed as cell-based, HBV (genotype D, serotype ayw). The following applies: Hepatitis B virus, 168 h, 7 days incubation, extracellular HBV DNA by QPCR, read-out: Anti-HBV EC50. A digest of the protocol: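 Tet-off HepAD38, 7-day compound exposure ([…], 1 log10 steps, DMSO vehicle), 37 °C. Extracellular HBV DNA by QPCR, copies/mL via standard curve, % inhibition vs vehicle, EC50 by 4-parameter regression. Entecavir as positive control.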

SMILES strings stand for the structures. pEC50: −log10 of the molar value.

Usually CC50 stands for the concentration at which the toxic effect on the cells reaches its halfway point. Low readings indicate harm at low concentration, high ones better tolerance by the cells. What is called pEC50 is −log10 of the EC50, conventionally taken in molar units.

Regarding `Cc1cc(NC(=O)c2c(C)c(C(=O)C(=O)NC3(C)CCN(c4ncccn4)CC3)n(C)c2C)ccc1F` [Example 691, N-(4-fluoro-3-methylphenyl)-1,2,4-trimethyl-5-(2-((4-methyl-1-(pyrimidin-2-yl)piperidin-4-yl)amino)-2-oxoacetyl)-1H-pyrrole-3-carboxamide], the CC50 at 7 days in series [1] was more than 30000 nM. In addition, the pEC50 in series [2] is more than 7.30.
For `Cc1cc(NC(=O)c2c(C)c(C(=O)C(=O)NC3(C)CCN(C(=O)c4ccnn4C)CC3)n(C)c2C)ccc1F` [Example 692, N-(4-fluoro-3-methylphenyl)-1,2,4-trimethyl-5-(2-((4-methyl-1-(1-methyl-1H-pyrazole-5-carbonyl)piperidin-4-yl)amino)-2-oxoacetyl)-1H-pyrrole-3-carboxamide] the same measures were more than 30000 nM and more than 7.30.
`Cc1cc(NC(=O)c2c(C)c(C(=O)C(=O)NC3(C)CCN(C(=O)c4cnn(C)c4)CC3)n(C)c2C)ccc1F` [Example 693, N-(4-fluoro-3-methylphenyl)-1,2,4-trimethyl-5-(2-((4-methyl-1-(1-methyl-1H-pyrazole-4-carbonyl)piperidin-4-yl)amno)-2-oxoacetyl)-1H-pyrrole-3-carboxamide]: in series [1], the CC50 at 7 days was more than 30000 nM. For the same compound, the pEC50 in series [2] was more than 7.30.
In series [1], `Cc1cc(NC(=O)c2c(C)c(C(=O)C(=O)NC3(C)CC=CCC3)n(C)c2C)ccc1F` (centres unmarked) [Example 694, N-(4-fluoro-3-methylphenyl)-1,2,4-trimethyl-5-(2-((1-methylcyclohex-3-en-1-yl)amino)-2-oxoacetyl)-1H-pyrrole-3-carboxamide] displayed a CC50 at 7 days of more than 30000 nM. Moreover, the pEC50 in series [2] was more than 7.30.
Taken in the same sequence, the figures for `Cc1cc(NC(=O)c2c(C)c(C(=O)C(=O)N[C@@H]3C[C@H](O)[C@H]4OC(C)(C)O[C@H]43)n(C)c2C)ccc1F` [Example 695, N-(4-fluoro-3-methylphenyl)-5-(2-(((3aS,4R,6S,6aR)-6-hydroxy-2,2-dimethyltetrahydro-4H-cyclopenta[d][1,3]dioxol-4-yl)amino)-2-oxoacetyl)-1,2,4-trimethyl-1H-pyrrole-3-carboxamide] were more than 30000 nM and more than 7.30.
For `CCn1c(C)c(C(=O)Nc2ccc(F)c(C)c2)c(C)c1C(=O)C(=O)N[C@]1(C)CC[C@@H](O)CC1` [Example 696] the same measures were more than 30000 nM and more than 7.30.
Compound `Cc1c(C(=O)Nc2cccc(C(F)F)c2)c(C)n(C)c1C(=O)C(=O)N[C@H]1CC[C@H](O)CC1` [Example 697, N-(3-(difluoromethyl)phenyl)-5-(2-(((1r,4r)-4-hydroxycyclohexyl)amino)-2-oxoacetyl)-1,2,4-trimethyl-1H-pyrrole-3-carboxamide] returned a CC50 at 7 days in series [1] of more than 30000 nM. In series [2], the pEC50 was more than 7.30.
Taken in the same sequence, the figures for `Cc1c(C(=O)Nc2ccc(F)c(F)c2)c(C)n(C)c1C(=O)C(=O)NC1(c2nnn[nH]2)CCCC1` [Example 698, 5-(2-((1-(1H-tetrazol-5-yl)cyclopentyl)amino)-2-oxoacetyl)-N-(3,4-difluorophenyl)-1,2,4-trimethyl-1H-pyrrole-3-carboxmide] were more than 30000 nM and 6.30 to 7.30.
The compound `Cc1cc(NC(=O)c2c(C)c(C(=O)C(=O)NC3(C)CCN(c4nccs4)CC3)n(C)c2C)ccc1F` [Example 699, N-(4-fluoro-3-methylphenyl)-1,2,4-trimethyl-5-(2-((4-mmethyl-1-(thiazol-2-yl)piperidin-4-yl)amino)-2-oxoacetyl)-1H-pyrrole-3-carboxamide] yielded a CC50 at 7 days in series [1] of 5000 to 30000 nM. Further, in series [2], the pEC50 is more than 7.30.
`Cc1c(C(=O)Nc2cccc(C(F)F)c2)c(C)n(C)c1C(=O)C(=O)N[C@]1(C)CC[C@@H](O)CC1` [Example 700, N-(3-(difluoromethyl)phenyl)-5-(2-(((1r,4r)-4-hydroxy-1-methylcyclohexyl)amino)-2-oxoacetyl)-1,2,4-rimethyl-1H-pyrrole-3-carboxamide] registered a CC50 at 7 days in series [1] of more than 30000 nM. Moreover, the pEC50 in series [2] was more than 7.30.
